Laboratory results as given in patent US20030119826A1, “Neuroprotective treatment methods using selective iNOS inhibitors” (Pharmacia Corporation, priority 2001, published 2003).
Structures can show the parent of a compound that is named as a salt. Where two headings read alike, the source gives them in different places.

What was measured:
[1] = tested on: Human Cartilage explants, IL-1β-induced nitric oxide synthase (nitrite production); test: Human cartilage explant assay (nitrite production, IL-1β induced); format: cell-based; conditions: inhibition of nitrite production, IL-1β stimulated explants
Description: Bone pieces are rinsed twice with Dulbecco's Phosphate Buffered Saline (GibcoBRL) and once with Dulbecco's Modified Eagles Medium (GibcoBRL) and placed into a petri dish with phenol red free Minimum Essential Medium (MEM) (GibcoBRL). Cartilage was cut into small explants of approximately 15-45 mg in weight and one or two explants per well are placed into either 96 or 48 well culture plates with 200-500 μL of culture media per well. The culture media was either a custom modification of Minimum Essential Medium(Eagle) with Earle's salts (GibcoBRL) prepared without L-Arginine, without L-Glutamine and without phenol red or a custom modification of serumless Neuman and Tytell (GibcoBRL) medium prepared without L-arginine, without insulin, without ascorbic acid, without L-glutamine and without phenol red. Both are supplemented before use with 100 μM L-Arginine (Sigma), 2 mM L-glutamine, 1X HL-1 supplement (BioWhittaker), […] ascorbic acid (Sigma) and 150 pg/ml recombinant human IL-1β (RD Systems) to induce nitric oxide synthase. Compounds are then added in 10 μL aliquots and the explants incubated at 37° C. with 5% CO2 for 18-24 hours. The day old supernatant is then discarded and replaced with fresh culture media containing recombinant human IL-1β and compound and incubated for another 20-24 hours. […] All samples are done in quadruplicate. Unstimulated controls are cultured in media in the absence of recombinant human IL-1β. IC50 values (Table I)are determined from plotting the percent inhibition of nitrite production at six different concentrations of inhibitor.

[2] = tested on: LPS-induced increase in plasma nitrite/nitrate levels; test: Endotoxin (LPS)-treated rats, plasma nitrite/nitrate levels; format: in vivo, rat; conditions: oral administration, plasma nitrite/nitrate 5 hours post-treatment
Description: Plasma nitrite/nitrate levels can be determined 5 hours post-treatment.

retinal ganglion cells = conditions: rats with chronic moderately elevated IOP, cited from earlier work
[3] = Rattus norvegicus, read-out: ED50

Compound	IC50 ([1]; Homo sapiens) [nM]	ED50 [2, 3] [mg/kg]	other results
N=C1CCCC[C@@H](CCCC[C@H](N)C(=O)O)N1 [Example W, ([…]S,2R)-[…]-aminohexahydro-7-imino-1H-azepine-2-hexanoic acid, trihydrate hydrochloride]	> 30000	> 10	–
N=C1CCCC[C@H](CCCC[C@@H](N)C(=O)O)N1 [Example Y, ([…]R,2S)-[…]-aminohexahydro-7-imino-1H-azepine-2-hexanoic acid, trihydrate hydrochloride]	–	–	IC50 [1]: < 10000 nM
CC(=N)NCC(F)=CCC[C@H](N)C(=O)O (mixture of isomers) [Example B, (2S,5E/Z)-2-amino-6-fluoro-7-[(1-iminoethyl)amino]-5-heptenoic acid, dihydrochloride]	200	–	–
CC(=N)NC/C(F)=C/CC[C@H](N)C(=O)O [Example D, (2S,5Z)-2-amino-6-fluoro-7-[(1-iminoethyl)amino]-5-heptenoic acid, trihydrochloride, dihydrate]	2500	> 10	–
COC[C@](N)(CSCCNC(C)=N)C(=O)O [Example J, 2-[[[2-[(1-Iminoethyl)amino]ethyl]thio]methyl]-O-methyl-D-serine, dihydrochloride]	–	–	IC50 [1]: 8200 nM
CC(=N)NC/C(F)=C\CC[C@H](N)C(=O)O [Example A, (2S,5E)-2-amino-6-fluoro-7-[(1-iminoethyl)amino]-5-heptenoic acid, dihydrochloride, monohydrate]	100	< 0.1	ED50 ([2]; dihydrochloride, monohydrate): <0.1 mg/kg
CC(=N)NC/C(F)=C\CC[C@](C)(N)C(=O)O.Cl.Cl [Example HH, (2S,5E)-2-amino-2-methyl-6-fluoro-7-[(1-iminoethyl)amino]-5-heptenoic acid, dihydrochloride]	400	0.4	–
CC(=N)NC/C(F)=C\CC[C@H](N)C(=O)Nc1nnn[nH]1 [Example H, (2S,5E)-2-amino-6-fluoro-7-[(1-iminoethyl)amino]-N-(1H-tetrazol-5-yl) 5-heptenamide, dihydrochloride]	–	< 0.3	–
CC(=NO)NC/C(F)=C\CC[C@H](N)C(=O)O [Example G, (2S,5E)-2-amino-6-fluoro-7-[(1-hydroximinoethyl)amino]-5-heptenoic acid]	–	< 0.1	melting point: 198 to 200 °C
N=C1CCCC[C@H](CCCC[C@@H](N)C(=O)O)N1 [Example V, ([…]R,2S)-[…]-aminohexahydro-7-imino-1H-azepine-2-hexanoic acid, trihydrate hydrochloride]	< 10000	< 3	–
CC(=N)NC/C=C\CC[C@](C)(N)C(=O)O.Cl.Cl [Example LL, (2S,5Z)-2-amino-2-methyl-7-[(1-iminoethyl)amino]-5-heptenoic acid, dihydrochloride]	800	0.3	–
N=C1CCCC[C@H](CCCC[C@H](N)C(=O)O)N1 [Example X, ([…]S,2S)-[…]-aminohexahydro-7-imino-1H-azepine-2-hexanoic acid, trihydrate hydrochloride]	< 10000	–	–
N=C(N)NN [aminoguanidine]	–	–	neuroprotection / loss of retinal ganglion cells (retinal ganglion cells): blocks loss of retinal ganglion cells; neuroprotection / loss of retinal ganglion cells (retinal ganglion cells; listed as Aminoguanidine): provide neuroprotection to retinal ganglion cells
